Source: patent publication US20240358719A1, “Formulations for Prolonging Gestation and for Complications of Menstruation or Gestation” (The Board of Trustees of the Leland Stanford Junior …, priority 2021, published 2024)
“Also recorded” adds a separate entry of the source. Counter-ions that a name gives are not always drawn.

Experiments:
pregnant C57BL/6 mice [1] = test: mouse model of moderate preterm birth (LPS 2 mg/kg); format: in vivo; settings: LPS 2 mg/kg D15; for gestation after LPS: intraperitoneal every 8 hours, DHEA-S, THDOC 0.8 then 0.4 mg/mouse, androstane-3,17-diol 1.5 mg/mouse, combinations 0.75 mg/mouse each
Experimental: Provided in FIGS. 6A and 6B are an experimental schematic and results of compound treatment in mouse models of moderate preterm birth. Pregnant C57BL/6 mice were intraperitoneally administered 2 mg/kg LPS (Escherichia coli 0127:B8, chromatographically pure, Sigma-Aldrich) or PBS (as control) on D15. Mice were then treated with either intraperitoneal injections of vehicle (100 μl, 30% DMSO in pharmaceutical sesame oil), DHEA-S (first two doses at 0.8 mg/mouse, later doses at 0.4 mg/mouse, 100 μl), THDOC (first two doses at 0.8 mg/mouse, later doses at 0.4 mg/mouse, 100 μl), estriol-16-glucuronide (first two doses at 0.8 mg/mouse, later doses at 0.4 mg/mouse, 100 μl), androstane-3,17-diol (1.5 mg/mouse, 100 μl), Androstane-3,17-diol+progesterone (each at 0.75 mg/mouse, 100 μl), or DHEA-S+androstane-3,17-diol+progesterone (androstane-3,17-diol and progesterone each at 0.75 mg/mouse, DHEA-S at 0.27 mg/mouse for the first two doses and then 0.13 mg/mouse for the later does, 100 μl). Compound groups received the compounds via intraperitoneal injections every 8 hours, beginning 8 hours after LPS administration, up to 4 doses, and then after 12 hours before delivery.

pregnant CD1 mice = test: mouse model of preterm birth (CD1, LPS 1 mg/kg); format: in vivo; settings: LPS 1 mg/kg D15, subcutaneous; for pups birthed from treated preterm model females: 4 doses; for gestation after LPS: 4 doses at 30 mg/kg (5α-DHT 3 mg/kg)
Experimental: Provided in FIGS. 9 and 9B are an experimental schematic and results of compound treatment in mouse models of preterm birth. Pregnant CD1 mice were intraperitoneally administered 1 mg/kg LPS (Escherichia coli 0127: B8, chromatographically pure, Sigma-Aldrich) or PBS (as control) on D15. Mice were then treated with either subcutaneous injections of vehicle (DMSO in pharmaceutical sesame oil), pregnenolone (Preg) (4 doses at 30 mg/kg), pregnenolone sulfate (PregS) (4 doses at 30 mg/kg), 7-methylguanine (4 doses at 30 mg/kg), or 5α-dihydrotestosterone (5α-DHT) (4 doses at 3 mg/kg). Compound groups received the compounds beginning 6 hours after LPS administration, then 6, 12, and 12 hours apart.

[2] = tested on: uterine muscle strips from pregnant WT mice; test: myography of mouse uterine muscle strips, spontaneous contraction
Experimental: (§1) Uterine muscle strips were extracted from pregnant mice and were assessed for contractibility via myography. Timed-pregnant wild-type C57/B6 mice were euthanized before making a vertical midline abdominal incision and removing each of the two uterine horns. Uterine horns were subsequently cut into 3-mm×7-mm segments and placed in a modified Krebs buffer (118 mM NaCl, […], 1.2 mM MgSO4, 1.2 mM KH2PO4, 2.5 mM CaCl2), 25 mM NaHCO3, and 11 mM glucose, pH 7.4). Muscle segments were vertically suspended on custom-made stainless steel hooks inside an organ bath filled with modified Krebs buffer, maintained at 37° C., and aerated with gas containing 95% O2 and 5% CO2. The strips were allowed to equilibrate at 1.5 g of tension for 45 min.
Provided in FIG. 5A are results of a myography experiment measuring spontaneous contraction. Myography of uterine muscle strips from pregnant WT mice at D18 was performed while incubating the strips with oxytocin (OXY), Vehicle, 0.25 μM μM of DHEA-S, 1 μM of THDOC, 1 μM of estriol-16-glucuronide, or 1 μM of androstane-3,17-diol. The area under the curve was calculated for the final 180 s of each 9-min contraction tracing using GraphPad Prism (GraphPad Prism for Macintosh version 5.0; GraphPad Software). The area under the curve for each response was then normalized to the area under the curve of the baseline.
Provided in FIG. 5E are myography tracings recorded with various compound applications: 10 μM progesterone, 1 μM Androstane-3,17-diol, 0.5 μM Androstane-3,17-diol+5 μM progesterone, and 0.33 μM Androstane-3,17-diol+0.33 μM THDOC+3.3 μM progesterone. Left of the arrow is baseline contraction and to the right of the arrow indicates when the compounds were applied. […] Note that there was no obvious effect when treating the muscle with 1 μM progesterone (data not shown).

[3] = tested on: human uterine smooth muscle cells; test: collagen gel contraction assay with human uterine smooth muscle cells; format: cell-based; settings: compound at 10 μM; oxytocin 100 nM, 18 hours
Experimental: The abilities of various hormonal steroids to inhibit human uterine smooth muscle cell contraction were assessed utilizing a collagen gel contraction assay. Collagen (150 μl) was aliquoted per well of a 48-well plate. After 1 hour of polymerization, 80,000 human uterine smooth muscle cells (SMCs), were added to each well in 300 μl of SmBM smooth muscle basic medium (Lonza) with vehicle (DMSO) or compounds (2.5 µM of DHEA-S, 10 µM of THDOC, 10 µM of estriol-16-glucuronide, 10 µM of androstane-3,17-diol, or 2 mM of progesterone). Collagen gels were exposed to oxytocin (100 nM) to stimulate uterine SMC contraction or PBS as control. After incubating for 1 hour at 37° C. and 5% CO2, the sides of the collagen gels were detached from the wells with sterile 200-μl pipette tips. After 18 hours, cells in collagen-coated wells were fixed with 4% paraformaldehyde solution for 30 min, then rinsed, and stored in PBS. Experiments were done multiple times (n=7), with duplicates for each condition. Surface area of each gel circle was measured using ImageJ. The areas were then expressed as a percentage relative to the area of no cell (collagen alone) control (set at 100%).
Each of the compounds assessed provided some ability to mitigate collagen retraction. […]

pregnant C57BL/6 mice [4] = test: gestation period in healthy control mice (no LPS); format: in vivo; settings: 1.5 mg/mouse intraperitoneal every 24 hours
Experimental: (§2) Provided in FIGS. 8A and 8B are an experimental schematic and results of tocolytic compound treatment in mouse models of severe preterm birth. In separate experiments, pregnant C57BL/6 mice were intraperitoneally administered 3 mg/kg LPS (Escherichia coli 0127: B8, chromatographically pure, Sigma-Aldrich) or PBS (as control) on D15. Treated mice were then treated with either intraperitoneal injections of vehicle or androstane-3,17-diol (1.5 mg/mouse). The androstane-3,17-diol group received androstane-3,17-diol via intraperitoneal injections every 24 hours, up to 3 days before delivery. One-third (33%) of LPS-induced preterm mice treated with androstane-3,17-diol reached full term.

[5] = tested on: uterine muscle strips from pregnant WT mice stimulated with oxytocin; test: myography of mouse uterine muscle strips, oxytocin dose response; settings: D18 strips
Experimental: as §1
For the oxytocin dose-response experiments, the strips were then stimulated with oxytocin at concentrations ranging from 1 to 1000 nM, and the pattern of contraction in response to each dose was recorded for 9 min. The muscle strips were washed with Krebs solution twice and allowed to equilibrate for 3 min before the next stimulation. In separate experiments, strips were treated with the compounds before assessing the dose response to oxytocin. Contraction tracings were recorded using PowerLab and LabChart (ADInstruments).
Provided in FIGS. 5B and 5C are results of a myography experiment measuring spontaneous contractions induced by oxytocin. […]

pregnant C57BL/6 mice [6] = test: mouse model of severe preterm birth (LPS 3 mg/kg); format: in vivo
Experimental: Provided in FIG. 7 is an experimental schematic of compound treatment in mouse models of severe preterm birth. In separate experiments, pregnant C57BL/6 mice were intraperitoneally administered 3 mg/kg LPS (Escherichia coli 0127: B8, chromatographically pure, Sigma-Aldrich) or PBS (as control) on D15. Treated mice were then treated with either intraperitoneal injections of vehicle (200 μl) or androstane-3,17-diol (1.5 mg/mouse, 200 μl) every 12 hours, up to 5 doses before delivery.
as §2

For `C[C@]12CC[C@@H](O)C[C@H]1CC[C@@H]1[C@@H]2CC[C@]2(C)[C@@H](C(=O)CO)CC[C@@H]12` [THDOC, tetrahydrodeoxycorticosterone], the “gestation after LPS” value (pregnant C57BL/6 mice [1]) was “prolonged gestation in vivo”.
In the case of `Cn1cnc2nc(N)[nH]c(=O)c21` [7-methylguanine], the “pups birthed from treated preterm model females” value (“pups birthed” for short) (pregnant CD1 mice) is reported as “Full-term live pups” and the “gestation after LPS” value (pregnant CD1 mice) is reported as “prolonged gestation in vivo”.
In the case of `C[C@]12CCC(=O)C[C@@H]1CC[C@@H]1[C@@H]2CC[C@]2(C)[C@@H](O)CC[C@@H]12` [5α-DHT, 5α-dihydrotestosterone], the “pups birthed” value (pregnant CD1 mice) is reported as “Full-term live pups” and the “gestation after LPS” value (pregnant CD1 mice) is reported as “prolonged gestation in vivo”.
With `C[C@]12CC[C@H](OS(=O)(=O)O)CC1=CC[C@@H]1[C@@H]2CC[C@]2(C)C(=O)CC[C@@H]12` [DHEA-S, dehydroisoandrosterone sulfate] the “pups birthed” value (pregnant C57BL/6 mice [1]; intraperitoneal) was “Full-term live pups” and the “gestation after LPS” value (pregnant C57BL/6 mice [1]) was “prolonged gestation in vivo”.
`CC(=O)[C@H]1CC[C@H]2[C@@H]3CC=C4C[C@@H](O)CC[C@]4(C)[C@H]3CC[C@]12C` [pregnenolone] was tested, and the “gestation after LPS” value (pregnant CD1 mice) was “prolonged gestation in vivo”.
With `CC(=O)[C@H]1CC[C@H]2[C@@H]3CCC4=CC(=O)CC[C@]4(C)[C@H]3CC[C@]12C` [progesterone, reference compound] the “muscle contractility, myography tracing” value ([2]; 1 μM) was “no effects”, the “muscle contractility, myography tracing” value ([2]; 10 μM) was “first enhanced and then gradually suppressed in peak height” and the “ability to mitigate collagen retraction” value [3] was “no effect”.
In the case of `C[C@]12CC[C@@H](O)C[C@@H]1CC[C@@H]1[C@@H]2CC[C@]2(C)[C@@H](O)CC[C@@H]12` (stereo in doubt) [androstane-3,17-diol], the “gestation period of healthy control mice” value (pregnant C57BL/6 mice [4]) is reported as “increased gestation period beyond the typical date of delivery”, the “uterine contractility with oxytocin stimulation (AUC, amplitude)” value ([5]; 1 μM compound, increasing doses of oxytocin) is reported as “reduced; also recorded: inhibits uterine muscle contraction” and the “muscle contractility, myography tracing” value ([2]; 1 μM) is reported as “rapid inhibition of the muscle contraction”. The “suppression of uterine contractility (area under the curve normalized to baseline)” value ([2]; D18 strips, 0.25 μM DHEA-S, 1 μM THDOC, estriol-16-glucuronide or androstane-3,17-diol) was “most significant inhibition effect”, the “ability to mitigate collagen retraction” value [3] was “best results” and the “pups birthed” value (pregnant C57BL/6 mice [1]; intraperitoneal) was “Full-term live pups”. The “rank of gestation result among treatments” value (pregnant C57BL/6 mice [1]; intraperitoneal) was “most significant results”, the “gestation after LPS” value (pregnant C57BL/6 mice [1]) was “prolonged gestation in vivo” and the “condition of mom and pups at full-term” value (pregnant C57BL/6 mice [6]; 1.5 mg/mouse intraperitoneal every 12 hours) was “looked healthy”. The “fraction of mice that reached full-term” value (pregnant C57BL/6 mice [6]; 1.5 mg/mouse intraperitoneal every 12 hours, up to 5 doses) was “⅓” and the “LPS-induced preterm mice that reached full term” value (pregnant C57BL/6 mice [6]; 1.5 mg/mouse intraperitoneal every 24 hours, up to 3 days) was 33%.
With `CC[C@H](C)[C@@H]1NC(=O)[C@H](Cc2ccc(O)cc2)NC(=O)[C@@H](N)CSSC[C@@H](C(=O)N2CCC[C@H]2C(=O)N[C@@H](CC(C)C)C(=O)NCC(N)=O)NC(=O)[C@H](CC(N)=O)NC(=O)[C@H](CCC(N)=O)NC1=O` [Oxytocin, oxytocin, reference compound] the “effect of oxytocin on uterine contractility” value ([5]; 1 to 1000 nM oxytocin) was “dose-dependent increase in uterine contractility”.
For `CC(=O)[C@H]1CC[C@H]2[C@@H]3CC=C4C[C@@H](OS(=O)(=O)O)CC[C@]4(C)[C@H]3CC[C@]12C` [pregnenolone sulfate], the “pups birthed” value (pregnant CD1 mice) was “Full-term live pups”, the “rank of gestation result among treatments” value (pregnant CD1 mice; 4 doses at 30 mg/kg) was “most significant results, matching the untreated control” and the “gestation after LPS” value (pregnant CD1 mice) was “prolonged gestation in vivo”.
